Where two headings read alike, the source gives them in different places.
Columns and labels:
IRAK4 [1] = biological target: T1, IRAK4 (Homo sapiens (Human), UniProt Q9NWZ3); assay: IRAK4 Degradation HiBiT Assay; conditions: HiBiT-tagged Jurkat cells, 4 hrs; for Dmax: Jurkat; for DC50: read-out: Cellular IRAK4 HiBiT: DC50
Target sequence in this assay (Q9NWZ3 whole entry): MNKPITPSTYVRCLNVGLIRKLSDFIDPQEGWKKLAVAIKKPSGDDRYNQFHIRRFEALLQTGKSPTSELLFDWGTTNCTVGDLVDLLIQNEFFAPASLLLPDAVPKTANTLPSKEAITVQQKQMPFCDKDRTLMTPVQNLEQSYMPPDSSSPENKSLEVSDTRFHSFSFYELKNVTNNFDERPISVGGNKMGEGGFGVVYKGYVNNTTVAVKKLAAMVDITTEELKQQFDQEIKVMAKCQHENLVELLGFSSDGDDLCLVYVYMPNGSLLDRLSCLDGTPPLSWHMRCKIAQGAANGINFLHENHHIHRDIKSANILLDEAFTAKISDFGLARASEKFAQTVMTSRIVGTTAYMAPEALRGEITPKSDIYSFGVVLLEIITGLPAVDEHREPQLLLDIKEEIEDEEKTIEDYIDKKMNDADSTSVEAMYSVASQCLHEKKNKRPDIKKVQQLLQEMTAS

IRAK4 [2] = biological target: T1, IRAK4; assay: IRAK4 Biochemical HTRF Kinase Assay; conditions: read-out: IRAK4 HTRF biochemical: IC50
Procedure, shortened: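 HTRF KinEASE STK S1 format measuring IRAK4 phosphorylation of biotinylated peptide; reaction solution of 5 μM STK-S1, 10 mM ATP, 10 mM MgCl2 added (stock, to 10 μl final), 90 min at ambient temperature, detection 60 min. IC50 from sixteen-point duplicate curves by non-linear regression.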
Target sequence in this assay (Q9NWZ3 whole entry, species assumed): as the sequence (Q9NWZ3 whole entry) above

[3] = read-out: Cellular IRAK4 HiBiT: Dmax, Table 4
[4] = read-out: Cellular IRAK4 HiBiT: Dmax, Table 5, multiple runs

| Structure (SMILES) | Dmax (IRAK4 [1]; [3]) | Dmax (IRAK4 [1]; [4]) | DC50 (IRAK4 [1]; Table 4) | DC50 (IRAK4 [1]; Table 5, multiple runs) | IC50 (IRAK4 [2]; Table 4) | IC50 (IRAK4 [2]; Table 5, multiple runs) |
| --- | --- | --- | --- | --- | --- | --- |
| CNc1cc(-c2ccc3cc(C#N)cnn23)ncc1-c1nnc(N2CCN(C(=O)C3CC4(CCN(c5ccc6c(c5)C(=O)N(C5CCC(=O)NC5=O)C6=O)C4)C3)CC2)s1 (stereo not shown) [Example 175, 7-(5-(5-(4-(6-(2-(2,6-dioxopiperidin-3-yl)-1,3-dioxoisoindolin-5-yl)-6-azaspiro[3.4]octane-2-carbonyl)piperazin-1-yl)-1,3,4-thiadiazol-2-yl)-4-(methylamino)pyridin-2-yl)pyrrolo[1,2-b]pyridazine-3-carbonitrile] | – | 91% | – | 19.1 nM | – | 0.5 nM |
| CNc1cc(-c2ccc3cc(C#N)cnn23)ncc1-c1nnc(N2CCN(C(=O)C3CCN(Cc4ccc5c(c4)C(=O)N(C4CCC(=O)NC4=O)C5=O)CC3)CC2)s1 (stereo not shown) [Example 86, 7-(5-(5-(4-(1-((2-(2,6-dioxopiperidin-3-yl)-1,3-dioxoisoindolin-5-yl)methyl)piperidine-4-carbonyl)piperazin-1-yl)-1,3,4-thiadiazol-2-yl)-4-(methylamino)pyridin-2-yl)pyrrolo[1,2-b]pyridazine-3-carbonitrile] | – | 105% | – | 18.5 nM | – | 1.1 nM |
| CNc1cc(-c2ccc3cc(C#N)cnn23)ncc1-c1nnc(N2CCN(C(=O)C[C@@H]3CCCN(c4cccc5c4C(=O)N(C4CCC(=O)NC4=O)C5=O)C3)CC2)s1 (stereo partly drawn) [Example 88, 7-(5-(5-(4-(2-((3S)-1-(2-(2,6-dioxopiperidin-3-yl)-1,3-dioxoisoindolin-4-yl)piperidin-3-yl)acetyl)piperazin-1-yl)-1,3,4-thiadiazol-2-yl)-4-(methylamino)pyridin-2-yl)pyrrolo[1,2-b]pyridazine-3-carbonitrile] | – | – | – | > 3330 nM | – | 1.4 nM |
| CNc1cc(-c2ccc3cc(C#N)cnn23)ncc1-c1nnc(N2CC3CCC(C2)N3C(=O)C[C@H](NC(=O)[C@@H]2C[C@@H](O)CN2C(=O)[C@@H](NC(=O)C2(F)CC2)C(C)(C)C)c2ccc(-c3scnc3C)cc2)s1 [Example 180, (2S,4R)—N-((1S)-3-(3-(5-(6-(3-cyanopyrrolo[1,2-b]pyridazin-7-yl)-4-(methylamino)pyridin-3-yl)-1,3,4-thiadiazol-2-yl)-3,8-diazabicyclo[3.2.1]octan-8-yl)-1-(4-(4-methylthiazol-5-yl)phenyl)-3-oxopropyl)-1-((S)-2-(1-fluorocyclopropane-1-carboxamido)-3,3-dimethylbutanoyl)-4-hydroxypyrrolidine-2-carboxamide] | – | 110% | – | 91.6 nM | – | 0.5 nM |

Second part, the molecule after the results:

| Dmax (IRAK4 [1]; [3]) | Dmax (IRAK4 [1]; [4]) | DC50 (IRAK4 [1]; Table 4) | DC50 (IRAK4 [1]; Table 5, multiple runs) | IC50 (IRAK4 [2]; Table 4) | IC50 (IRAK4 [2]; Table 5, multiple runs) | Structure (SMILES) |
| --- | --- | --- | --- | --- | --- | --- |
| 97% | 97% | 357 nM | 357 nM | 5 nM | 5 nM | Cc1ncsc1-c1ccc([C@H](C)NC(=O)[C@@H]2C[C@@H](O)CN2C(=O)[C@@H](NC(=O)CCCCC(=O)N2CCN(c3nnc(-c4cnc(-c5ccc6cc(C#N)cnn56)cc4NC(C)C)s3)CC2)C(C)(C)C)cc1 [Example 39, (2S,4R)-1-((S)-2-(6-(4-(5-(6-(3-cyanopyrrolo[1,2-b]pyridazin-7-yl)-4-(isopropylamino)pyridin-3-yl)-1,3,4-thiadiazol-2-yl)piperazin-1-yl)-6-oxohexanamido)-3,3-dimethylbutanoyl)-4-hydroxy-N—((S)-1-(4-(4-methylthiazol-5-yl)phenyl)ethyl)pyrrolidine-2-carboxamide] |
| – | 28% | – | 2520 nM | – | 1.5 nM | CNc1cc(-c2ccc3cc(C#N)cnn23)ncc1-c1nnc([C@H]2CC[C@H](NC(=O)CCC(=O)N[C@H](C(=O)N3C[C@H](O)C[C@H]3C(=O)N[C@@H](C)c3ccc(Br)cc3)C(C)(C)C)CC2)s1 [Example 172, N1—((S)-1-((2S,4R)-2-(((S)-1-(4-bromophenyl)ethyl)carbamoyl)-4-hydroxypyrrolidin-1-yl)-3,3-dimethyl-1-oxobutan-2-yl)-N4-((1r,4S)-4-(5-(6-(3-cyanopyrrolo[1,2-b]pyridazin-7-yl)-4-(methylamino)pyridin-3-yl)-1,3,4-thiadiazol-2-yl)cyclohexyl)succinamide] |
| 39% | 39% | 228 nM | 229 nM | 9.2 nM | 9.2 nM | CC(C)Nc1cc(-c2ccc3cc(C#N)cnn23)ncc1-c1nnc(N2CCN(C(=O)CCOCCNc3cccc4c3C(=O)N(C3CCC(=O)NC3=O)C4=O)CC2)s1 (stereo not shown) [Example 7, 7-(5-(5-(4-(3-(2-((2-(2,6-dioxopiperidin-3-yl)-1,3-dioxoisoindolin-4-yl)amino)ethoxy)propanoyl)piperazin-1-yl)-1,3,4-thiadiazol-2-yl)-4-(isopropylamino)pyridin-2-yl)pyrrolo[1,2-b]pyridazine-3-carbonitrile] |
| – | 68% | – | 544 nM | – | 2.8 nM | CNc1cc(-c2ccc3cc(C#N)cnn23)ncc1-c1nnc([C@H]2CC[C@H](NC(=O)CC(C)(C)C(=O)N[C@H](C(=O)N3C[C@H](O)C[C@H]3C(=O)N[C@@H](C)c3ccc(-c4scnc4C)cc3)C(C)(C)C)CC2)s1 [Example 154, N4-((1r,4S)-4-(5-(6-(3-cyanopyrrolo[1,2-b]pyridazin-7-yl)-4-(methylamino)pyridin-3-yl)-1,3,4-thiadiazol-2-yl)cyclohexyl)-N1—((S)-1-((2S,4R)-4-hydroxy-2-(((S)-1-(4-(4-methylthiazol-5-yl)phenyl)ethyl)carbamoyl)pyrrolidin-1-yl)-3,3-dimethyl-1-oxobutan-2-yl)-2,2-dimethylsuccinamide] |
| – | – | – | > 970 nM | – | 1.6 nM | CNc1cc(-c2ccc3cc(C#N)cnn23)ncc1-c1nnc(N2CCN(C[C@H]3CCN(c4ccc5c(c4)n(C)c(=O)n5C4CCC(=O)NC4=O)C3)CC2)s1 (stereo partly drawn) [Example 91, 7-(5-(5-(4-(((3R)-1-(1-(2,6-dioxopiperidin-3-yl)-3-methyl-2-oxo-2,3-dihydro-1H-benzo[d]imidazol-5-yl)pyrrolidin-3-yl)methyl)piperazin-1-yl)-1,3,4-thiadiazol-2-yl)-4-(methylamino)pyridin-2-yl)pyrrolo[1,2-b]pyridazine-3-carbonitrile] |

From US12528814B2, “Bifunctional degraders of interleukin-1 receptor-associated kinases and therapeutic use thereof” (NURIX THERAPEUTICS, INC., priority 2020, dated 2026)
